Source: the NIST ThermoML archive (doi:10.1016/j.fluid.2018.04.024)
Numbers after ± are expanded uncertainties.

Details: Liquid, Vibrating tube method

CCCCCCCC(=O)OC [methyl octanoate]
mass density [kg/m3]
Details | 293.15 K | 303.15 K | 313.15 K | 323.15 K | 333.15 K | 343.15 K | 353.15 K | 363.15 K
100 kPa | 876.9 ± 0.9 | 867.63 ± 0.89 | 859.3 ± 0.89 | 850.11 ± 0.88 | 841.41 ± 0.87 | 832.2 ± 0.86 | 823.55 ± 0.85 | 814.86 ± 0.84
1000 kPa | 877.02 ± 0.9 | 868.42 ± 0.9 | 859.59 ± 0.89 | 850.91 ± 0.88 | 842.13 ± 0.87 | 833.32 ± 0.86 | 824.37 ± 0.85 | 815.91 ± 0.85
3000 kPa | 878.65 ± 0.91 | 869.93 ± 0.9 | 861.28 ± 0.89 | 852.59 ± 0.88 | 844.08 ± 0.88 | 835.25 ± 0.87 | 826.59 ± 0.86 | 818.18 ± 0.85
5000 kPa | 879.78 ± 0.91 | 871.47 ± 0.9 | 862.89 ± 0.9 | 854.3 ± 0.89 | 845.82 ± 0.88 | 837.24 ± 0.87 | 828.51 ± 0.86 | 820.31 ± 0.86
10000 kPa | 883.45 ± 0.92 | 875.12 ± 0.91 | 866.8 ± 0.91 | 858.46 ± 0.9 | 850.11 ± 0.89 | 841.71 ± 0.88 | 833.34 ± 0.88 | 825.1 ± 0.87
15000 kPa | 886.82 ± 0.93 | 878.71 ± 0.92 | 870.52 ± 0.92 | 862.36 ± 0.91 | 854.18 ± 0.9 | 846.06 ± 0.9 | 838.05 ± 0.89 | 830.33 ± 0.89
20000 kPa | 890.07 ± 0.94 | 882.04 ± 0.93 | 874.1 ± 0.92 | 866.24 ± 0.92 | 858.22 ± 0.91 | 850.39 ± 0.91 | 842.32 ± 0.9 | 834.62 ± 0.9
25000 kPa | 893.28 ± 0.94 | 885.35 ± 0.94 | 877.59 ± 0.93 | 869.67 ± 0.93 | 862.06 ± 0.92 | 854.17 ± 0.92 | 846.49 ± 0.92 | 838.84 ± 0.91
30000 kPa | 896.35 ± 0.95 | 888.57 ± 0.95 | 880.87 ± 0.94 | 873.15 ± 0.94 | 865.57 ± 0.94 | 858.07 ± 0.93 | 850.48 ± 0.93 | 843.09 ± 0.93
35000 kPa | 899.25 ± 0.96 | 891.59 ± 0.96 | 884.11 ± 0.95 | 876.46 ± 0.95 | 869.05 ± 0.95 | 861.81 ± 0.94 | 854.32 ± 0.94 | 847.13 ± 0.94
40000 kPa | 902.05 ± 0.97 | 894.49 ± 0.96 | 887.04 ± 0.96 | 879.75 ± 0.96 | 872.61 ± 0.96 | 865.19 ± 0.95 | 857.88 ± 0.95 | 851.06 ± 0.95
50000 kPa | 907.81 ± 0.98 | 900.27 ± 0.98 | 893.07 ± 0.98 | 885.93 ± 0.98 | 878.98 ± 0.98 | 872.01 ± 0.98 | 864.82 ± 0.98 | 858.24 ± 0.98
60000 kPa | 912.62 ± 0.99 | 905.64 ± 0.99 | 898.5 ± 0.99 | 891.84 ± 0.99 | 884.95 ± 1 | 877.98 ± 1 | 871.35 ± 1 | 865.07 ± 1

CCCCCCCCC(=O)OC [methyl nonanoate]
mass density [kg/m3]
Details | 293.15 K | 303.15 K | 313.15 K | 323.15 K | 333.15 K | 343.15 K | 353.15 K | 363.15 K
100 kPa | 874.53 ± 0.9 | 865.62 ± 0.89 | 857.46 ± 0.88 | 848.37 ± 0.88 | 839.92 ± 0.87 | 831.17 ± 0.86 | 822.78 ± 0.85 | 814.24 ± 0.84
1000 kPa | 874.57 ± 0.9 | 866.39 ± 0.89 | 857.68 ± 0.89 | 849.17 ± 0.88 | 840.72 ± 0.87 | 832.28 ± 0.86 | 823.57 ± 0.85 | 815.28 ± 0.85
3000 kPa | 876.13 ± 0.9 | 867.88 ± 0.9 | 859.33 ± 0.89 | 850.82 ± 0.88 | 842.6 ± 0.87 | 834.1 ± 0.87 | 825.7 ± 0.86 | 817.47 ± 0.85
5000 kPa | 877.24 ± 0.91 | 869.35 ± 0.9 | 860.86 ± 0.89 | 852.43 ± 0.89 | 844.26 ± 0.88 | 835.98 ± 0.87 | 827.54 ± 0.86 | 819.49 ± 0.86
10000 kPa | 880.79 ± 0.92 | 872.9 ± 0.91 | 864.63 ± 0.9 | 856.42 ± 0.9 | 848.44 ± 0.89 | 840.27 ± 0.88 | 832.17 ± 0.88 | 824.1 ± 0.87
15000 kPa | 884.05 ± 0.93 | 876.32 ± 0.92 | 868.21 ± 0.91 | 860.21 ± 0.91 | 852.27 ± 0.9 | 844.44 ± 0.9 | 836.71 ± 0.89 | 829.08 ± 0.88
20000 kPa | 887.23 ± 0.93 | 879.53 ± 0.93 | 871.68 ± 0.92 | 863.98 ± 0.92 | 856.18 ± 0.91 | 848.65 ± 0.91 | 840.79 ± 0.9 | 833.26 ± 0.9
25000 kPa | 890.33 ± 0.94 | 882.74 ± 0.94 | 875.06 ± 0.93 | 867.27 ± 0.93 | 859.9 ± 0.92 | 852.29 ± 0.92 | 844.86 ± 0.92 | 837.27 ± 0.91
30000 kPa | 893.33 ± 0.95 | 885.85 ± 0.95 | 878.23 ± 0.94 | 870.68 ± 0.94 | 863.32 ± 0.93 | 856.04 ± 0.93 | 848.7 ± 0.93 | 841.4 ± 0.92
35000 kPa | 896.14 ± 0.96 | 888.79 ± 0.95 | 881.36 ± 0.95 | 873.86 ± 0.95 | 866.68 ± 0.95 | 859.58 ± 0.94 | 852.44 ± 0.94 | 845.31 ± 0.94
40000 kPa | 898.87 ± 0.97 | 891.61 ± 0.96 | 884.18 ± 0.96 | 877.04 ± 0.96 | 870.12 ± 0.96 | 862.91 ± 0.95 | 855.87 ± 0.95 | 849.11 ± 0.95
50000 kPa | 904.41 ± 0.98 | 897.21 ± 0.98 | 890.09 ± 0.98 | 883.08 ± 0.98 | 876.13 ± 0.98 | 869.47 ± 0.98 | 862.53 ± 0.98 | 855.98 ± 0.98
60000 kPa | 909.15 ± 0.99 | 902.44 ± 0.99 | 895.33 ± 0.99 | 888.79 ± 0.99 | 881.95 ± 1 | 875.25 ± 1 | 868.9 ± 1 | 862.59 ± 1

CCCCCCC(=O)OC [methyl heptanoate]
mass density [kg/m3]
Details | 293.15 K | 303.15 K | 313.15 K | 323.15 K | 333.15 K | 343.15 K | 353.15 K | 363.15 K
100 kPa | 880.16 ± 0.91 | 870.66 ± 0.9 | 861.82 ± 0.89 | 852.25 ± 0.88 | 843.03 ± 0.87 | 833.48 ± 0.86 | 824.35 ± 0.85 | 815.19 ± 0.84
1000 kPa | 880.29 ± 0.91 | 871.46 ± 0.9 | 862.16 ± 0.89 | 853.12 ± 0.88 | 843.81 ± 0.87 | 834.64 ± 0.86 | 825.27 ± 0.86 | 816.36 ± 0.85
3000 kPa | 881.98 ± 0.91 | 873.07 ± 0.9 | 863.9 ± 0.89 | 854.89 ± 0.89 | 845.84 ± 0.88 | 836.7 ± 0.87 | 827.61 ± 0.86 | 818.75 ± 0.85
5000 kPa | 883.19 ± 0.91 | 874.66 ± 0.91 | 865.62 ± 0.9 | 856.64 ± 0.89 | 847.68 ± 0.88 | 838.79 ± 0.87 | 829.66 ± 0.87 | 821 ± 0.86
10000 kPa | 886.99 ± 0.92 | 878.5 ± 0.92 | 869.71 ± 0.91 | 860.97 ± 0.9 | 852.16 ± 0.89 | 843.47 ± 0.89 | 834.76 ± 0.88 | 826.14 ± 0.87
15000 kPa | 890.49 ± 0.93 | 882.18 ± 0.92 | 873.55 ± 0.92 | 865.07 ± 0.91 | 856.43 ± 0.9 | 848.02 ± 0.9 | 839.63 ± 0.89 | 831.57 ± 0.89
20000 kPa | 893.86 ± 0.94 | 885.64 ± 0.93 | 877.29 ± 0.93 | 869.08 ± 0.92 | 860.63 ± 0.92 | 852.59 ± 0.91 | 844.11 ± 0.9 | 836.11 ± 0.9
25000 kPa | 897.18 ± 0.95 | 889.08 ± 0.94 | 880.89 ± 0.94 | 872.69 ± 0.93 | 864.64 ± 0.93 | 856.55 ± 0.92 | 848.48 ± 0.92 | 840.56 ± 0.91
30000 kPa | 900.36 ± 0.95 | 892.3 ± 0.95 | 884.32 ± 0.95 | 876.31 ± 0.94 | 868.31 ± 0.94 | 860.57 ± 0.93 | 852.65 ± 0.93 | 845.01 ± 0.93
35000 kPa | 903.34 ± 0.96 | 895.46 ± 0.96 | 887.66 ± 0.95 | 879.74 ± 0.95 | 871.91 ± 0.95 | 864.43 ± 0.94 | 856.65 ± 0.94 | 849.23 ± 0.94
40000 kPa | 906.22 ± 0.97 | 898.49 ± 0.97 | 890.73 ± 0.96 | 883.15 ± 0.96 | 875.61 ± 0.96 | 867.96 ± 0.96 | 860.37 ± 0.95 | 853.33 ± 0.95
50000 kPa | 912.14 ± 0.98 | 904.43 ± 0.98 | 896.98 ± 0.98 | 889.53 ± 0.98 | 882.2 ± 0.98 | 875 ± 0.98 | 867.57 ± 0.98 | 860.82 ± 0.98
60000 kPa | 917.16 ± 1 | 909.95 ± 0.99 | 902.59 ± 0.99 | 895.63 ± 0.99 | 888.39 ± 1 | 881.19 ± 1 | 874.32 ± 1 | 867.91 ± 1
